Values quoted from earlier work in paper PMC12266345, “Discovery and characterization of selective lipase-inhibiting polyheterocyclic derivatives: a combined in silico and in vitro study” (Turkish Journal of Biology, 2025).
Values after ≈ are worked out from the molar mass of the structure shown. Read-outs that look alike come from different tables or passages of the source.

Target: lipase
[1] = ref Ruiz et al., 2006, Benarous et al., 2015

## Cc1nc(-c2ccc(OCC(C)C)c(C#N)c2)sc1C(=O)O [febuxostat]
Ref Serseg and Benarous, 2018
  IC50 lipase inhibition: 660 µg/mL (≈ 2090 µM)

## Nc1nc(=O)c2nc(CNc3ccc(C(=O)N[C@@H](CCC(=O)O)C(=O)O)cc3)cnc2[nH]1 [folic acid]
Ref Serseg and Benarous, 2018
  IC50 lipase inhibition: 640 µg/mL (≈ 1450 µM)

## CCOC(=O)N1CCC(=C2c3ccc(Cl)cc3CCc3cccnc32)CC1 [loratadine]
Ref Benarous et al., 2018
  IC50 lipase inhibition: 440 ± 0.02 µg/mL (≈ 1150 µM)

## O=C(N[C@H](CO)[C@H](O)c1ccc([N+](=O)[O-])cc1)C(Cl)Cl [Chloramphenicol]
Ref Liu et al., 2006
  IC50 lipase inhibition: 220 ± 0.003 µg/mL (≈ 681 µM)

## O.Oc1cc(O)c2c(c1)O[C@H](c1ccc(O)c(O)c1)[C@@H](O)C2 [catechin]
[1]
  IC50 lipase inhibition: 183 µg/mL

## CN(C)[C@@H]1C(O)=C(C(N)=O)C(=O)[C@@]2(O)C(O)=C3C(=O)c4c(O)cccc4[C@@](C)(O)[C@H]3C[C@@H]12 [tetracycline]
Ref Liu et al., 2006
  IC50 lipase inhibition: 470 ± 0.005 µg/mL (≈ 1060 µM)

## COc1ccc2c3c([nH]c2c1)C(C)=NCC3 [harmaline]
[1]
  IC50 lipase inhibition: 830 µg/mL (≈ 3870 µM)

## O=c1cc(O)cc(/C=C/c2ccc(O)c(O)c2)o1 [hispidin]
[1]
  IC50 lipase inhibition: 179 µg/mL (≈ 727 µM)
